PMC9408991, “Antitumor Effects of a New Retinoate of the Fungal Cytotoxin Illudin M in Brain Tumor Models” (International Journal of Molecular Sciences, 2022)
Read-outs that look alike come from different tables or passages of the source.

Legend:
Type in all cases: cell-based
[1] = tested on: NE-4C neuroectodermal stem cells; test: MTT cell viability assay, NE-4C neuroectodermal stem cells; conditions: Mus musculus, read-out: Inhibitory concentration IC50
Method: NE-4C cells derived from the anterior brain vesicles of p53-deficient 9-day-old mouse embryos were maintained in Minimum Essential Medium (MEM; Sigma Aldrich, Taufkirchen, Germany) supplemented with 5% fetal calf serum (FCS; Invitrogen-Gibco, Carlsbad, CA, USA), 4 mM glutamine (Sigma-Aldrich, Taufkirchen, Germany) and 40 ug/mL gentamycin (Chinoin, Budapest, Hungary). For maintenance, subconfluent cultures were regularly split by trypsinization (0.05 w/v% trypsin in PBS) into poly-L-lysine-coated Petri dishes. Primary astrocytes were isolated from whole brains of neonatal (P0-P3) mice, as described earlier. In brief, meninges were removed, and the tissue pieces were subjected to enzymatic dissociation, using 0.05% w/v trypsin and 0.05% w/v DNase for 10 min at room temperature. The cells were plated onto poly-L-lysine coated plastic surfaces and grown in MEM supplemented with 10% fetal calf serum, 4 mM glutamine and 40 ug/mL gentamycin. Primary neuronal cultures were prepared from embryonic (E15–E16) mouse (CD1) forebrains, as described earlier. In brief, cell suspensions were prepared by mechanical dissociation over a nylon mesh with a pore diameter of 40–42 μm. The cells were seeded at 10^5 cells/cm^2 density onto PLL-coated surfaces. The cultures were maintained in MEM supplemented with 5% FCS, 4 mM glutamine, 40 µg/mL gentamicin and 2.5 μg/mL amphotericin B (Sigma). In co-culture experiments, U87 glioma cells were seeded onto established neuronal cultures at DIV3 in a 25,000 cell/cm^2 density.
(§1) Non-GBM cells (5 × 10^4 cells/mL, 100 µL/well) were grown in 96-well plates for 24 h. […] After the addition of 12.5 µL of a 0.5% MTT solution in PBS, the cells were incubated for 3 h at 37 °C so that the water-soluble MTT could be converted to formazan crystals. Then, the plates were centrifuged (300× g, 5 min, 4 °C), the medium withdrawn, and the formazan dissolved in 25 µL of DMSO containing 10% sodium dodecylsulfate (SDS) and 0.6% acetic acid for at least 2 h at 37 °C. In the case of the HL60 cells, after 2 h, the precipitate of formazan crystals was redissolved in a 10% solution of SDS in DMSO containing 0.6% acetic acid.

[2] = tested on: C6 astrocytoma cells; test: MTT cell viability assay, C6 astrocytoma; conditions: Rattus norvegicus, read-out: Inhibitory concentration IC50
Method: (§2) 518A2 (Department of Radiotherapy, Medical University of Vienna, Vienna, Austria) melanoma, KB-V1^Vbl (ACC-149) cervix carcinoma, MCF-7^Topo (ACC-115) breast carcinoma, HT29 (ACC-299) colon carcinoma were cultivated in Dulbecco’s Modified Eagle Medium (DMEM) supplemented with 10% fetal bovine serum and 1% antibiotic-antimycotic at 37 °C, 5% CO2, and 95% humidity. To keep MCF-7^Topo and KB-V1^Vbl cells resistant, the maximum-tolerated doses of topotecan or vinblastine were added to the cell culture medium 24 h after every passage. The human HL60 leukemia cells were obtained from the German National Resource Center for Biological Material (DSMZ), Braunschweig. Neuroectodermal stem cells NE-4C (ATCC No. CRL-2925), primary mouse astrocytes, rat glioma C6 (ATCC No. CCL-107) and human glioma U87 (ATCC No. HTB-14) were used.
(§3) Non-GBM cells (5 × 10^4 cells/mL, 100 µL/well) were grown in 96-well plates for 24 h. Then, they were treated with various concentrations of the test compounds or vehicle (DMSO, or EtOH) for 72 h at 37 °C. After the addition of 12.5 µL of a 0.5% MTT solution in PBS, the cells were incubated for 3 h at 37 °C so that the water-soluble MTT could be converted to formazan crystals. Then, the plates were centrifuged (300× g, 5 min, 4 °C), the medium withdrawn, and the formazan dissolved in 25 µL of DMSO containing 10% sodium dodecylsulfate (SDS) and 0.6% acetic acid for at least 2 h at 37 °C. In the case of the HL60 cells, after 2 h, the precipitate of formazan crystals was redissolved in a 10% solution of SDS in DMSO containing 0.6% acetic acid.
[…] Afterward, 10 µL of a 5 mg/mL MTT solution in PBS was added to the cells for 3 h at 37 °C. Then, the spheres were centrifuged shortly to collect the cells on the bottom of the plate, and the medium was removed by careful pipetting for both adherently grown and floating sphere GBM cultures. Afterward, formazan was dissolved in a mixture (24:1 v:v) of isopropanol and 1 M HCl using 100 µL for adherent cells by shaking the plates for at least 20 min. The absorbance of formazan (λ = 570 nm), and background (λ = 630 nm) was measured with a microplate reader (Tecan Spark, Tecan Deutschland GmbH, Crailsheim, Germany).

[3] = tested on: HT-29 colon carcinoma cells; test: MTT cell viability assay, HT-29 colon carcinoma; conditions: Homo sapiens, read-out: Inhibitory concentration IC50
Method: as §2, §1

[4] = tested on: brain-derived cells (NE-4C, neurons, astrocytes, C6, U87, U251, MZ-54); test: MTT assay, summary over brain-derived cells; conditions: 48 h, read-out: IC50 (48 h) values, range over brain-derived cells
Method: as §3
Adherently grown GBM cells were seeded at 5 × 10^4 cells/mL and floating spheres at 8 × 10^4 cells/mL in 100 µL/well and incubated as above for 48 or 72 h at 37 °C. Afterward, 10 µL of a 5 mg/mL MTT solution in PBS was added to the cells for 3 h at 37 °C. Then, the spheres were centrifuged shortly to collect the cells on the bottom of the plate, and the medium was removed by careful pipetting for both adherently grown and floating sphere GBM cultures. […] The absorbance of formazan (λ = 570 nm), and background (λ = 630 nm) was measured with a microplate reader (Tecan Spark, Tecan Deutschland GmbH, Crailsheim, Germany).

Structure (SMILES)	IC50 ([1]; 24 h exposure)	IC50 ([1]; 48 h exposure)	IC50 ([2]; C6, 24 h exposure)	IC50 ([2]; C6, 48 h exposure)	IC50 ([3]; HT-29, 24 h exposure)	IC50 ([3]; HT-29, 48 h exposure)	IC50 [4]
CC1=C(/C=C/C(C)=C/C=C/C(C)=C/C(=O)O[C@@H]2C3=C(C)C4(CC4)[C@@](C)(O)C(=O)C3=CC2(C)C)C(C)(C)CCC1 [Compound 2, illudin M retinoate]	7000 ± 3200 nM	2000 ± 1200 nM	40000 ± 4000 nM	12000 ± 1300 nM	38000 ± 4000 nM	4000 ± 1300 nM	–
CC1=C2C(=CC(C)(C)[C@@H]2O)C(=O)[C@](C)(O)C12CC2 [Compound 1, illudin M]	400 ± 100 nM	50 ± 20 nM	1000 ± 300 nM	400 ± 60 nM	1500 ± 600 nM	60 ± 10 nM	50 to 400 nM
